# Source: publication PMC6449356 (Scientific Reports, 2019)
# Like-named read-outs stand apart in the source and are kept apart here.
# Assays:
# [1] = test system: S. aureus linezolid-nonsusceptible G2576U mutants (14); experiment: MIC50/MIC90, broth microdilution (CLSI), strain panel; type: cell-based, Staphylococcus aureus; details: linezolid-nonsusceptible S. aureus G2576U mutants (14 strains)
# Source text: (§1) resistance mechanisms using broth microdilution methods (CLSI).
# (§2) Cadazolid Lin e zolid Vancom yc in
# (§3) lin e zolid-nonsusceptible (26**)
# (§4) * The 12 tested wild-type control strains include methicillin [oxacillin]-resistant [MRSA]
# (§5) strains [41.7%] from JMI Laboratories (North Liberty, Iowa).
# (§6) ** The 26 clinical strains tested included 12 cfr-positive and 14 23S rRNA mutants [G2576U].
# [2] = test system: S. aureus wild-type strains (12); experiment: as above; type: cell-based, Staphylococcus aureus; details: wild-type S. aureus (12 strains)
# Source text: as §1, §2, §3, §4, §5, §6
# [3] = test system: S. aureus linezolid-nonsusceptible strains carrying cfr (12); experiment: as above; type: cell-based, Staphylococcus aureus; details: linezolid-nonsusceptible S. aureus carrying cfr (12 strains)
# Source text: as §1, §2, §3, §4, §5, §6
# [4] = test system: cell-free extract from S. aureus S1 (LZD^R, homozygous G2576U in 23S rRNA); experiment: In vitro transcription/translation (IVTT) assay, S. aureus S1 LZD-resistant extract; type: biochemical, Staphylococcus aureus; details: average value and range of three independent experiments
# Method: (§7) The cell-free protein synthesis reactions were carried out based on a procedure published for E. coli[37] and adapted for S. aureus as described previously for C. difficile. To improve expression from extracts derived from S. aureus, the firefly luciferase reporter gene was resynthesized with codons optimized for S. aureus at GeneArt AG (Regensburg, Germany) and cloned into plasmid pSP-luc_NF Fusion (Promega), replacing the existing luciferase gene. In addition, a 180-bp-long BglII-HindIII promoter fragment of gene abrB310 derived from Clostridium acetobutylicum was synthesized and cloned upstream of the codon-optimized luciferase gene for efficient translation, leading to plasmid pSPAbrlac-luc_Saur. […]
# (§8) Test compounds diluted in 8% DMSO were added to reaction buffer containing bacterial extract and SP6 RNA polymerase, yielding final concentrations of 100, 20, 4, 0.8, 0.16, 0.04, 0.008, 0.0016, and 0 µM. […] The luminescence was immediately measured after addition of the luciferase substrate Bright Glo (Promega, E2610) using a Tecan SpectralFluor Plus Reader (GeniosPro) instrument (parameters: integration time 1000 ms; intensity normal). Fifty percent inhibitory concentrations (IC50s) were calculated from the data.
# [5] = test system: cell-free extracts from E. coli and from S. aureus linezolid-susceptible and -resistant strains; experiment: In vitro translation in cell-free extracts, summary over the three extracts; type: biochemical; details: range over extracts from E. coli and S. aureus linezolid-susceptible and -resistant strains
# Method: as §7, §8
# [6] = test system: cell-free extract from E. coli ATCC 25922 (coupled transcription/translation); experiment: In vitro transcription/translation (IVTT) assay, E. coli extract; type: biochemical, Escherichia coli; details: E. coli ATCC 25922 extract; average value and range of three independent experiments
# S. aureus S1 LZD^R = experiment: MIC, micro dilution (CLSI); type: cell-based; details: Staphylococcus aureus
# Method: (§9) The MICs were determined using the micro dilution method recommended by the Clinical and Laboratory Standards Institute (CLSI).
# E. coli ATCC 25922 = experiment: MIC, micro dilution (CLSI); type: cell-based; details: Escherichia coli, ATCC25922
# Method: as §9
# E. coli MG1655 tolC::kan = experiment: MIC, micro dilution (CLSI); type: cell-based; details: Escherichia coli
# Method: as §9
# S. aureus ATCC 29213 = experiment: MIC, micro dilution (CLSI); type: cell-based; details: Staphylococcus aureus, ATCC29213, median value of at least 3 determinations
# Method: as §9
# [7] = test system: cell-free extract from S. aureus ATCC 29213 (coupled transcription/translation); experiment: In vitro transcription/translation (IVTT) assay, S. aureus wt extract; type: biochemical, Staphylococcus aureus; details: S. aureus ATCC 29213 extract, average value and range of three independent experiments
# Method: The cell-free protein synthesis reactions were carried out based on a procedure published for E. coli[37] and adapted for S. aureus as described previously for C. difficile. To improve expression from extracts derived from S. aureus, the firefly luciferase reporter gene was resynthesized with codons optimized for S. aureus at GeneArt AG (Regensburg, Germany) and cloned into plasmid pSP-luc_NF Fusion (Promega), replacing the existing luciferase gene. In addition, a 180-bp-long BglII-HindIII promoter fragment of gene abrB310 derived from Clostridium acetobutylicum was synthesized and cloned upstream of the codon-optimized luciferase gene for efficient translation, leading to plasmid pSPAbrlac-luc_Saur. S. aureus bacterial extracts were prepared according to a simplified E. coli procedure using a FastPrep®-24 instrument from Lucerna Chem AG (Cat No. 6004-500) and lysing matrix B (Lucerna Chem, Cat No. 116911100; silica spheres < 100 µm).
# Test compounds diluted in 8% DMSO were added to reaction buffer containing bacterial extract and SP6 RNA polymerase, yielding final concentrations of 100, 20, 4, 0.8, 0.16, 0.04, 0.008, 0.0016, and 0 µM. Samples were mixed and pre-incubated for 10 min at RT before 100 ng plasmid pBestluc (E. coli) or 500 ng plasmid pSPAbrlac-luc_Saur (S. aureus) was added. After mixing, the plate was incubated at RT for 90 min. The luminescence was immediately measured after addition of the luciferase substrate Bright Glo (Promega, E2610) using a Tecan SpectralFluor Plus Reader (GeniosPro) instrument (parameters: integration time 1000 ms; intensity normal). Fifty percent inhibitory concentrations (IC50s) were calculated from the data.
Structure (SMILES),MIC50 [1],MIC90 [1],MIC50 [2],MIC90 [2],MIC50 [3],MIC90 [3],IC50 [4],IC50 [5],IC50 [6],MIC (S. aureus S1 LZD^R),"MIC (E. coli ATCC 25922; E. coli ATCC 25922, median value of at least 3 determinations, read-out: MIC)",MIC (E. coli MG1655 tolC::kan),MIC (S. aureus ATCC 29213),IC50 [7],MIC (E. coli ATCC 25922),IC50 ([7]; listed as LZD)
CN[C@H](CC(C)C)C(=O)N[C@H]1C(=O)N[C@@H](CC(N)=O)C(=O)N[C@H]2C(=O)N[C@H]3C(=O)N[C@H](C(=O)N[C@H](C(=O)O)c4cc(O)cc(O)c4-c4cc3ccc4O)[C@H](O)c3ccc(c(Cl)c3)Oc3cc2cc(c3O[C@@H]2O[C@H](CO)[C@@H](O)[C@H](O)[C@H]2O[C@H]2C[C@](C)(N)[C@H](O)[C@H](C)O2)Oc2ccc(cc2Cl)[C@H]1O [Vancomycin],1,1,1,1,0.5,1,,,,,,,,,,
O=C(O)c1cn(C2CC2)c2cc(N3CCC(O)(COc4ccc(N5C[C@H](CO)OC5=O)cc4F)CC3)c(F)cc2c1=O [Cadazolid],0.5,0.5,0.25,0.25,0.25,0.5,330 nM,240 to 330 nM,240 nM,1 µg/mL,8 µg/mL,≤ 0.063 µg/mL,0.5 µg/mL,320 nM,,
CC(=O)NC[C@H]1CN(c2ccc(N3CCOCC3)c(F)c2)C(=O)O1 [Linezolid],8,16,1,1,8,8,7030 nM,,4030 nM,32 µg/mL,,8 µg/mL,2 µg/mL,2610 nM,> 32 µg/mL,2600 nM
